Results taken from ChEMBL document CHEMBL4419175, “Compositions for treatment, diagnosis and prognosis of diseases” (2016).
Calls of active or inactive are those of the source. No cut-off for these calls is given here.

Key:
PC-3 [1] = test: Inhibition of PIP5K1alpha protein expression in human PC3 cells at 50 nM incubated for 48 hrs by immunoblot analysis; type: functional, cell-based
PC-3 [2] = test: Antitumor activity against human PC3 cells xenografted in mouse assessed as reduction in volume at 10 mg/kg dosed every second day starting from day 0 and ending on day 20 relative to control; type: functional, organism-based
LNCaP [3] = test: Inhibition of PSA protein expression in human LNCAP cells at 50 nM incubated for 48 hrs by immunoblot analysis; type: functional, cell-based
[4] = Toxicity in mouse xenografted with human PC3 cells at 10 mg/kg dosed every second day starting from day 0 and ending on day 20 relative to control; type: organism-based; conditions: in vivo
LNCaP [5] = test: Inhibition of AR protein expression in human LNCAP cells at 50 nM incubated for 48 hrs by immunoblot analysis; type: functional, cell-based
PC-3 [6] = test: Induction of apoptosis in human PC3 cells assessed as viable cells at 100 nM incubated for 48 hrs by Annexin-/7-AAD staining based FACS analysis (reference value: 94.31%); type: functional; conditions: PC-3, 48 h, read-out: Activity
LNCaP [7] = test: Inhibition of PIP5K1alpha protein expression in human LNCAP cells assessed as reduction in AKT phosphorylation at Ser473 residues at 50 nM incubated for 48 hrs by immunoblot analysis relative to control; type: functional, cell-based
PC-3 [8] = test: Inhibition of PIP5K1alpha protein expression in human PC3 cells assessed as reduction in FAK phosphorylation incubated for 48 hrs by immunoblot analysis relative to control; type: functional, cell-based
PC-3 [9] = test: Inhibition of PIP5K1alpha protein expression in human PC3 cells assessed as reduction in AKT phosphorylation at Ser473 residues at 100 nM incubated for 48 hrs by immunoblot analysis relative to control; type: functional, cell-based
PC-3 [10] = test: Induction of morphological changes in human PC3 cells assessed as changes in morphology at 100 nM incubated for 48 hrs by live cell imaging system based assay; type: functional
PC-3 [11] = test: Induction of apoptosis in human PC3 cells assessed as early apoptotic cells at 100 nM incubated for 48 hrs by Annexin-/7-AAD staining based FACS analysis (reference value: 2.53%); type: functional
PC-3 [12] = test: Induction of apoptosis in human PC3 cells assessed as late apoptotic cells at 100 nM incubated for 48 hrs by Annexin-/7-AAD staining based FACS analysis (reference value: 2.83%); type: functional
LNCaP [13] = test: Effect on CREB phosphorylation in human LNCAP cells at 50 nM incubated for 48 hrs by immunoblot analysis; type: functional, cell-based
PC-3 [14] = test: Induction of morphological changes in human PC3 cells assessed as reduction in cell size at 100 nM incubated for 48 hrs by live cell imaging system based assay; type: functional
PC-3 [15] = test: Induction of apoptosis in human PC3 cells assessed as necrotic cells at 100 nM incubated for 48 hrs by Annexin-/7-AAD staining based FACS analysis (reference value: 0.32%); type: functional

CC(=O)O[C@@]12CO[C@@H]1C[C@H](O)[C@@]1(C)C(=O)[C@H](O)C3=C(C)[C@@H](OC(=O)[C@H](O)[C@@H](NC(=O)OC(C)(C)C)c4ccccc4)C[C@@](O)([C@@H](OC(=O)c4ccccc4)[C@H]21)C3(C)C [DOCETAXEL ANHYDROUS]
inhibition (PC-3 [1]): inactive
Activity (PC-3 [2]): Active
inhibition (LNCaP [3]): inactive
Activity [4]: Toxic
inhibition (LNCaP [5]): inactive
viability at 0.1 µM (PC-3 [6]): 89.8%
inhibition (LNCaP [7]): inactive
inhibition (PC-3 [8]): inactive
inhibition (PC-3 [9]): inactive
Activity (PC-3 [10]): Active
Activity (PC-3 [11]): 2.73%
Activity (PC-3 [12]): 6.36%
Activity (LNCaP [13]): inactive
Activity (PC-3 [14]): Active
Activity (PC-3 [15]): 1.15%
